Molecular target: T1, AtTRM61/AtTRM6 complex (AtTRM61-His/AtTRM6-GST) (Arabidopsis thaliana, UniProt F4K6U9)
T1 construct: gene TRM61; CDSs of AtTRM61 (pET28a+, His tag) and AtTRM6 (pGEX-4T-2, GST tag) co-expressed in E. coli, Ni-NTA purified; tag removal not mentioned; heterodimeric complex; with tRNA (adenine(58)-N(1))-methyltransferase non-catalytic subunit TRM6
T1 sequence (F4K6U9 1-318): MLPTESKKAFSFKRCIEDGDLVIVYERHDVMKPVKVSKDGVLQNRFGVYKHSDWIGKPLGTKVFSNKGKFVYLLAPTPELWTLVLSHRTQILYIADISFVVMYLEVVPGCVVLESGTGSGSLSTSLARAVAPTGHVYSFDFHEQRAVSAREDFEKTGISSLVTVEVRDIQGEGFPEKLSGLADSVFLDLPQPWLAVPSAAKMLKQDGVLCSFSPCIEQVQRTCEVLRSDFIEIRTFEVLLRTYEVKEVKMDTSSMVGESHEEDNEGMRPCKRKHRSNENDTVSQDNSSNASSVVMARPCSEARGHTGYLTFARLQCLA
T1 sequence (O80846 1-446 partner): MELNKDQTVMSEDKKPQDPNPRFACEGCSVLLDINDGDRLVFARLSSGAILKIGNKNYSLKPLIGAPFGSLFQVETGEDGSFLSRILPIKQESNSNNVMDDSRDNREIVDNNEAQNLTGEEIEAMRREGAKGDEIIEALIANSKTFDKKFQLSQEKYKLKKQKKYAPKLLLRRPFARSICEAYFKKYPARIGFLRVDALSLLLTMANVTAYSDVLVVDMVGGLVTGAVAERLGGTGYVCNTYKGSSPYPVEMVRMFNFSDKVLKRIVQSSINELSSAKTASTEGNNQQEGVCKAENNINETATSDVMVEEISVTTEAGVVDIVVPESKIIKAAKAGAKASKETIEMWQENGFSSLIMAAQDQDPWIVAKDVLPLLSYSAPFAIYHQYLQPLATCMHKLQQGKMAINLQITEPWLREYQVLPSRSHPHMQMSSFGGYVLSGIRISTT
Assay: m1A formation on tRNA, anti-m1A immuno-northern blot
Format: biochemical
Conditions: methyl donor, 30 mM AdoMet as printed; 150 nM RNA substrate (trm6-506 yeast tRNA or in vitro transcribed Arabidopsis tRNAiMet); 15 nM protein; 30 °C, 30 min

C[S+](CC[C@H](N)C(=O)O)C[C@H]1O[C@@H](n2cnc3c(N)ncnc32)[C@H](O)[C@@H]1O (stereo partly drawn) [S-adenosyl-L-methionine]
m1A formation on tRNA, anti-m1A immuno-northern blot: The purified complex was then incubated with a methyl donor (SAM)
